Key:
rape = assay: Test B pre/postemergence rape; assay type: in vivo, Brassica napus; conditions: for Rape plant response rating: scale of 0 to 10 where 0 is no effect and 10 is complete control
In short: (§1)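 Test chemicals in a non-phytotoxic solvent mixture with surfactant were sprayed preemergence onto planted seeds and postemergence onto plants 2 to 18 cm tall (1- to 4-leaf stage). After twelve to sixteen days in a greenhouse, injury was visually rated against untreated controls from 0 (no effect) to 10 (complete control).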

wheat = assay: Test B pre/postemergence wheat; assay type: in vivo, Triticum aestivum; conditions: for Wheat plant response rating: scale of 0 to 10 where 0 is no effect and 10 is complete control
In short: as §1

sugar beet = assay: Test B pre/postemergence sugar beet; assay type: in vivo, Beta vulgaris; conditions: for Sugarbeets plant response rating: scale of 0 to 10 where 0 is no effect and 10 is complete control
In short: as §1

corn = assay: Test B pre/postemergence corn; assay type: in vivo, Zea mays; conditions: for Corn plant response rating: scale of 0 to 10 where 0 is no effect and 10 is complete control
In short: as §1

surinam grass = assay: Test B pre/postemergence surinam grass; assay type: in vivo, Brachiaria decumbens; conditions: for B. signalgrass plant response rating: scale of 0 to 10 where 0 is no effect and 10 is complete control
In short: as §1

giant foxtail = assay: Test B pre/postemergence giant foxtail; assay type: in vivo, Setaria faberii; conditions: for Giant foxtail plant response rating: scale of 0 to 10 where 0 is no effect and 10 is complete control
In short: as §1

crabgrass = assay: Test B pre/postemergence crabgrass; assay type: in vivo, Digitaria sanguinalis; conditions: for Crabgrass plant response rating: scale of 0 to 10 where 0 is no effect and 10 is complete control
In short: as §1

bamyardgrass = assay: Test B flood test barnyardgrass; assay type: in vivo, Echinochloa crus-galli
In short: (§2)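 Each value is a visual injury score relative to controls, with 10 meaning complete control and 0 no effect. Evaluation took place twelve to sixteen days after the 2-leaf-stage plants were treated and kept in the greenhouse.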

velvetleaf = assay: Test B pre/postemergence velvetleaf; assay type: in vivo, Abutilon theophrasti; conditions: for Velvetleaf plant response rating: scale of 0 to 10 where 0 is no effect and 10 is complete control
In short: as §1

purple nutsedge = assay: Test B pre/postemergence purple nutsedge; assay type: in vivo, Cyperus rotundus; conditions: for Nutsedge plant response rating: scale of 0 to 10 where 0 is no effect and 10 is complete control
In short: as §1

soybean = assay: Test B pre/postemergence soybean; assay type: in vivo, Glycine max; conditions: for Soybean plant response rating: scale of 0 to 10 where 0 is no effect and 10 is complete control
In short: as §1

blackgrass = assay: Test B pre/postemergence blackgrass; assay type: in vivo, Alopecurus myosuroides; conditions: for Blackgrass plant response rating: scale of 0 to 10 where 0 is no effect and 10 is complete control
In short: as §1

bedstraw = assay: Test B pre/postemergence bedstraw; assay type: in vivo, Galium aparine; conditions: for Bedstraw plant response rating: scale of 0 to 10 where 0 is no effect and 10 is complete control
In short: as §1

cocklebur = assay: Test B pre/postemergence cocklebur; assay type: in vivo, Xanthium strumarium; conditions: for Cocklebur plant response rating: scale of 0 to 10 where 0 is no effect and 10 is complete control
In short: as §1

smallflower flatsedge = assay: Test B flood test smallflower flatsedge; assay type: in vivo, Cyperus difformis
In short: as §2

duck salad = assay: Test B flood test duck salad; assay type: in vivo, Heteranthera limosa
In short: as §2

rice = assay: Test B flood test rice; assay type: in vivo, Oryza sativa
In short: as §2

[1] = Postemergence, Rate 125 g/ha, scale 0 to 10, 0 is no effect, 10 is complete control
[2] = Postemergence, Rate 250 g/ha, scale 0 to 10, 0 is no effect, 10 is complete control
[3] = Preemergence, Rate 62 g/ha, scale 0 to 10 (0 no effect, 10 complete control)
[4] = Rate 500 g/ha, Postemergence, scale 0 to 10, 0 no effect, 10 complete control
[5] = Rate 62 g/ha, flood test species, Pre-emergence, visual evaluation after twelve to sixteen days
[6] = Rate 125 g/ha, under heading Pre-emergence, flood test species, visual evaluation after twelve to sixteen days
[7] = Rate 250 g/ha, Pre-emergence, flood-test species, scale 0 to 10, 0 is no effect, 10 is complete control
[8] = Rate 500 g/ha, Pre-emergence, flood test species, scale 0 to 10 (0 no effect, 10 complete control)

Structure (SMILES): CCOc1nc(C(F)(F)F)c(Cn2c(=O)on(C(=O)N(c3ccccc3)C(C)C)c2=O)s1 [Compound 379]
- Plant response rating, Rape (rape; [1]): 0
- Plant response rating, Rape (rape; [2]): 0
- Plant response rating, Rape (rape; [3]): 0
- Rape plant response rating (0 to 10 scale) (rape; Preemergence, Rate 125 g/ha): 0
- Rape plant response rating (rape; Preemergence, Rate 250 g/ha): 0
- Rape plant response rating (rape; Preemergence, Rate 500 g/ha): 0
- Rape plant response rating (rape; Rate 62 g/ha, Postemergence): 0
- Plant response rating, Rape (rape; [4]): 0
- Plant response rating, Wheat (wheat; [1]): 0
- Plant response rating, Wheat (wheat; [2]): 0
- Plant response rating, Wheat (wheat; [3]): 0
- Wheat plant response rating (0 to 10 scale) (wheat; Preemergence, Rate 125 g/ha): 0
- Wheat plant response rating (wheat; Preemergence, Rate 250 g/ha): 0
- Wheat plant response rating (wheat; Preemergence, Rate 500 g/ha): 0
- Wheat plant response rating (wheat; Rate 62 g/ha, Postemergence): 0
- Plant response rating, Wheat (wheat; [4]): 0
- Plant response rating, Sugarbeets (sugar beet; [1]): 0
- Plant response rating, Sugarbeets (sugar beet; [2]): 0
- Plant response rating, Sugarbeets (sugar beet; [3]): 0
- Sugarbeets plant response rating (0 to 10 scale) (sugar beet; Preemergence, Rate 125 g/ha): 0
- Sugarbeets plant response rating (sugar beet; Preemergence, Rate 250 g/ha): 0
- Sugarbeets plant response rating (sugar beet; Preemergence, Rate 500 g/ha): 0
- Sugarbeets plant response rating (sugar beet; Rate 62 g/ha, Postemergence): 0
- Plant response rating, Sugarbeets (sugar beet; [4]): 0
- Plant response rating, Corn (corn; [1]): 0
- Plant response rating, Corn (corn; [2]): 0
- Plant response rating, Corn (corn; [3]): 0
- Corn plant response rating (0 to 10 scale) (corn; Preemergence, Rate 125 g/ha): 0
- Corn plant response rating (corn; Preemergence, Rate 250 g/ha): 0
- Corn plant response rating (corn; Preemergence, Rate 500 g/ha): 0
- Corn plant response rating (corn; Rate 62 g/ha, Postemergence): 0
- Plant response rating, Corn (corn; [4]): 0
- Plant response rating, B. signalgrass (surinam grass; [1]): 0
- Plant response rating, B. signalgrass (surinam grass; [2]): 0
- Plant response rating, B. signalgrass (surinam grass; [3]): 0
- B. signalgrass plant response rating (0 to 10 scale, 0 is no effect, 10 is complete control) (surinam grass; Preemergence, Rate 125 g/ha): 0
- B. signalgrass plant response rating (surinam grass; Preemergence, Rate 250 g/ha): 0
- B. signalgrass plant response rating (surinam grass; Preemergence, Rate 500 g/ha): 0
- B. signalgrass plant response rating (surinam grass; Rate 62 g/ha, Postemergence): 0
- Plant response rating, B. signalgrass (surinam grass; [4]): 0
- Plant response rating, Giant foxtail (giant foxtail; [1]): 0
- Plant response rating, Giant foxtail (giant foxtail; [2]): 2
- Plant response rating, Giant foxtail (giant foxtail; [3]): 0
- Giant foxtail plant response rating (0 to 10 scale) (giant foxtail; Preemergence, Rate 125 g/ha): 1
- Giant foxtail plant response rating (giant foxtail; Preemergence, Rate 250 g/ha): 6
- Giant foxtail plant response rating (giant foxtail; Preemergence, Rate 500 g/ha): 9
- Giant foxtail plant response rating (giant foxtail; Rate 62 g/ha, Postemergence): 0
- Plant response rating, Giant foxtail (giant foxtail; [4]): 7
- Plant response rating, Crabgrass (crabgrass; [1]): 0
- Plant response rating, Crabgrass (crabgrass; [2]): 0
- Plant response rating, Crabgrass (crabgrass; [3]): 0
- Crabgrass plant response rating (0 to 10 scale) (crabgrass; Preemergence, Rate 125 g/ha): 0
- Crabgrass plant response rating (crabgrass; Preemergence, Rate 250 g/ha): 7
- Crabgrass plant response rating (crabgrass; Preemergence, Rate 500 g/ha): 8
- Crabgrass plant response rating (crabgrass; Rate 62 g/ha, Postemergence): 0
- Plant response rating, Crabgrass (crabgrass; [4]): 0
- Plant response rating, Barnyardgrass (0 to 10 scale, 0 is no effect, 10 is complete control) (bamyardgrass; [5]): 0
- Barnyardgrass plant response rating (0 to 10 scale, 0 is no effect, 10 is complete control) (bamyardgrass; [6]): 0
- Barnyardgrass plant response rating (bamyardgrass; [7]): 0
- Barnyardgrass plant response rating (bamyardgrass; [8]): 0
- Plant response rating, Velvetleaf (velvetleaf; [1]): 0
- Plant response rating, Velvetleaf (velvetleaf; [2]): 0
- Plant response rating, Velvetleaf (velvetleaf; [3]): 0
- Velvetleaf plant response rating (0 to 10 scale) (velvetleaf; Preemergence, Rate 125 g/ha): 0
- Velvetleaf plant response rating (velvetleaf; Preemergence, Rate 250 g/ha): 0
- Velvetleaf plant response rating (velvetleaf; Preemergence, Rate 500 g/ha): 0
- Velvetleaf plant response rating (velvetleaf; Rate 62 g/ha, Postemergence): 0
- Plant response rating, Velvetleaf (velvetleaf; [4]): 0
- Plant response rating, Nutsedge (purple nutsedge; [1]): 0
- Plant response rating, Nutsedge (purple nutsedge; [2]): 0
- Plant response rating, Nutsedge (purple nutsedge; [3]): 0
- Nutsedge plant response rating (0 to 10 scale) (purple nutsedge; Preemergence, Rate 125 g/ha): 0
- Nutsedge plant response rating (purple nutsedge; Preemergence, Rate 250 g/ha): 0
- Nutsedge plant response rating (purple nutsedge; Preemergence, Rate 500 g/ha): 0
- Nutsedge plant response rating (purple nutsedge; Rate 62 g/ha, Postemergence): 0
- Plant response rating, Nutsedge (purple nutsedge; [4]): 0
- Plant response rating, Soybean (soybean; [1]): 1
- Plant response rating, Soybean (soybean; [2]): 1
- Plant response rating, Soybean (soybean; [3]): 0
- Soybean plant response rating (0 to 10 scale) (soybean; Preemergence, Rate 125 g/ha): 0
- Soybean plant response rating (soybean; Preemergence, Rate 250 g/ha): 0
- Soybean plant response rating (soybean; Preemergence, Rate 500 g/ha): 0
- Soybean plant response rating (soybean; Rate 62 g/ha, Postemergence): 1
- Plant response rating, Soybean (soybean; [4]): 2
- Plant response rating, Blackgrass (blackgrass; [1]): 0
- Plant response rating, Blackgrass (blackgrass; [2]): 0
- Plant response rating, Blackgrass (blackgrass; [3]): 0
- Blackgrass plant response rating (0 to 10 scale) (blackgrass; Preemergence, Rate 125 g/ha): 0
- Blackgrass plant response rating (blackgrass; Preemergence, Rate 250 g/ha): 0
- Blackgrass plant response rating (blackgrass; Preemergence, Rate 500 g/ha): 0
- Blackgrass plant response rating (blackgrass; Rate 62 g/ha, Postemergence): 0
- Plant response rating, Blackgrass (blackgrass; [4]): 0
- Plant response rating, Bedstraw (bedstraw; [1]): 0
- Plant response rating, Bedstraw (bedstraw; [2]): 0
- Plant response rating, Bedstraw (bedstraw; [3]): 0
- Bedstraw plant response rating (0 to 10 scale) (bedstraw; Preemergence, Rate 125 g/ha): 0
- Bedstraw plant response rating (bedstraw; Preemergence, Rate 250 g/ha): 0
- Bedstraw plant response rating (bedstraw; Rate 62 g/ha, Postemergence): 0
- Plant response rating, Bedstraw (bedstraw; [4]): 0
- Plant response rating, Cocklebur (cocklebur; [1]): 0
- Plant response rating, Cocklebur (cocklebur; [2]): 0
- Plant response rating, Cocklebur (cocklebur; [3]): 0
- Cocklebur plant response rating (0 to 10 scale) (cocklebur; Preemergence, Rate 125 g/ha): 0
- Cocklebur plant response rating (cocklebur; Preemergence, Rate 250 g/ha): 0
- Cocklebur plant response rating (cocklebur; Preemergence, Rate 500 g/ha): 0
- Cocklebur plant response rating (cocklebur; Rate 62 g/ha, Postemergence): 0
- Plant response rating, Cocklebur (cocklebur; [4]): 0
- Plant response rating, S. Flatsedge (0 to 10 scale, 0 is no effect, 10 is complete control) (smallflower flatsedge; [5]): 0
- S. Flatsedge plant response rating (0 to 10 scale, 0 is no effect, 10 is complete control) (smallflower flatsedge; [6]): 0
- S. Flatsedge plant response rating (smallflower flatsedge; [7]): 0
- S. Flatsedge plant response rating (smallflower flatsedge; [8]): 0
- Plant response rating, Ducksalad (0 to 10 scale, 0 is no effect, 10 is complete control) (duck salad; [5]): 0
- Ducksalad plant response rating (0 to 10 scale, 0 is no effect, 10 is complete control) (duck salad; [6]): 0
- Ducksalad plant response rating (duck salad; [7]): 0
- Ducksalad plant response rating (duck salad; [8]): 0
- Plant response rating, Rice (0 to 10 scale, 0 is no effect, 10 is complete control) (rice; [5]): 0
- Rice plant response rating (0 to 10 scale, 0 is no effect, 10 is complete control) (rice; [6]): 0
- Rice plant response rating (rice; [7]): 0
- Rice plant response rating (rice; [8]): 0

From patent US6737383B1, “Herbicidal oxadiazolidines” (priority 1999, dated 2004)
